Experimental data taken from PubChem BioAssay (NCI).
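Cultured in 96-well plates, cells were exposed to test compound for 48 hours across five concentrations. Abbreviation: GI50, concentration required for 50% inhibition of growth. TGI: concentration producing complete growth inhibition.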

How the values were obtained:
Experiment in all cases: NCI tumour cell line growth inhibition, 48 h
DMS 273 small cell lung = system: DMS 273 small cell lung
LXFL 529 NSCLC = system: LXFL 529 NSCLC
KM20L2 colon = system: KM20L2 colon
SNB-78 CNS = system: SNB-78 CNS
DLD-1 colon = system: DLD-1 colon
XF 498 CNS = system: XF 498 CNS
DMS 114 small cell lung = system: DMS 114 small cell lung
RXF-631 renal = system: RXF-631 renal
MDA-N = system: MDA-N

| SMILES | TGI (DMS 273 small cell lung) [µM] | TGI (LXFL 529 NSCLC) [µM] | TGI (KM20L2 colon) [µM] | TGI (SNB-78 CNS) [µM] | TGI (DLD-1 colon) [µM] | TGI (XF 498 CNS) [µM] | TGI (DMS 114 small cell lung) [µM] | TGI (RXF-631 renal) [µM] | TGI (MDA-N) [µM] | GI50 (MDA-N) [µM] | GI50 (LXFL 529 NSCLC) [µM] | GI50 (KM20L2 colon) [µM] | GI50 (DLD-1 colon) [µM] |
| --- | --- | --- | --- | --- | --- | --- | --- | --- | --- | --- | --- | --- | --- |
| CCOC(=O)c1cc(=O)n(C)c(=O)n1C | > 100 | > 100 | > 100 | > 100 | > 100 | > 100 |  |  |  |  |  |  |  |
| N#Cc1c2ccccc2c(Cc2ccc3c(c2)OCCOCCOCCOCCOCCO3)c2ccccc12 | 17.8 | 30.4 | 21.7 | 31.9 | 22 | 23.5 | 23.9 |  |  |  |  |  |  |
| Brc1ccccc2cc(-c3ccccc3)nc1-2 | 16.4 | 3.25 |  | 6.91 | 3.74 | 3.44 | 6.12 | > 53.3 | 29.4 |  |  |  |  |
| Cc1ccccc1NC(=O)Cc1nc2ccccc2s1 | 37.6 | 29.9 | 36.6 | 32.6 | > 100 | 27.6 |  | 32.3 |  |  |  |  |  |
| Cc1ccc(N(C=O)c2c([N+](=O)[O-])cc([N+](=O)[O-])c3c2=[N+]([O-])CN=3)cc1 |  |  |  |  |  |  |  |  | > 100 |  |  |  |  |
| COc1ccc(Oc2nc3cc(N)cc(N)c3nc2-c2ccccc2)cc1 |  |  |  |  |  |  |  |  | > 100 | 35.2 |  |  |  |
| CCOC(=O)C1=C(OC(OCC)C([Se]c2ccccc2)C(C)C)CCC1 (configuration not stated) | 20 | 29.5 | 63.3 | 38.8 | 33.8 | 26.4 |  |  |  |  |  |  |  |
| C/C=C/C(=O)Oc1cccc2cccnc12 | 46.9 | > 100 | > 35.5 | > 100 | 21 | 55.2 | 16.8 |  |  |  |  |  |  |
| COc1cc(OCc2ccccc2)c2c(CCC(=O)O)cc(=O)oc2c1 (tested in a mixture with another compound) |  |  |  |  |  |  |  |  | > 100 |  |  |  |  |
| C[C@]12CC[C@H](O[C@@H]3O[C@H](CO[C@@H]4O[C@H](CO)[C@@H](O)[C@H](O)[C@H]4O)[C@@H](O)[C@H](O)[C@H]3O)C[C@@H]1CC[C@@H]1[C@@H]2CC[C@]2(C)[C@@H](C3=CC(=O)OC3)CC[C@]12O |  |  |  |  |  |  |  |  | 93.5 |  |  |  |  |
| CC(=O)[CH-]C(=O)c1ccccc1.CC(=O)[CH-]C(=O)c1ccccc1.Cl.[O-]c1ccnc2ccccc12.[O-]c1ccnc2ccccc12.[Ti+4] |  | > 100 | > 100 |  | > 100 |  |  |  |  |  | > 100 | > 100 | > 100 |
| O=C(O)c1ccc2c(c1)C(=O)N(c1ccc(S(=O)(=O)c3ccc(N4C(=O)c5ccc(C(=O)O)cc5C4=O)cc3)cc1)C2=O | > 100 | > 100 | > 100 | > 100 |  | > 100 | > 100 |  |  |  |  |  |  |
| COC(=O)C1=CC2C(=O)OC1C1C(=O)NC(=O)C21 (configuration not stated) | > 100 | > 100 | > 100 | > 100 | > 100 | > 100 | > 100 | > 100 |  |  |  |  |  |
| N#C/C(=C\c1cc(O)c(O)c(O)c1)C(N)=O | > 100 | > 100 | > 100 | > 100 | > 100 | > 100 | > 100 | > 100 | > 100 |  |  |  |  |
| COc1cccc2c1C(=O)c1c(O)c3c(c(O)c1C2=O)C[C@@](O)(C(=O)CO)CC3OC1CC(N)C(OC2CCCCO2)C(C)O1 (some centres not stated) | 7.18 | 3.14 | 4.98 | 26.5 | 17.8 | 1.47 |  |  | 0.362 |  |  |  |  |
| CCOC(=O)C1=C(C)NC(=O)NC1c1ccc(OC)cc1OC (configuration not stated) | > 100 | > 100 | > 100 | > 100 | > 100 | > 100 | > 100 |  |  |  |  |  |  |
| CC(=Nc1ccc(N(C)C)cc1)c1ccccc1 |  |  |  |  |  |  |  |  | 52.2 |  |  |  |  |
| CC1(C)C(=O)OC(n2cc(F)c(=O)[nH]c2=O)C1=O (configuration not stated) |  | > 100 | > 100 | > 100 | > 100 | > 100 | > 100 |  |  |  |  |  |  |
| CC1OC(n2cc(C(F)(F)F)c(=O)[nH]c2=O)C=CC1=O (configuration not stated) |  | 31.6 | 48.1 | 31.5 | 38.2 | 30.3 |  | 25.3 |  |  |  |  |  |
| c1ccc(C2=NOC3C4CCC(C4)C23)cc1 (configuration not stated) | > 100 | > 100 |  | > 100 | > 100 |  | > 100 |  |  |  |  |  |  |
